Tests used:
[1] = test system: adventitious root of wild ginseng; assay: Effect of added growth regulator on adventitious root propagation (wild ginseng); type: cell-based; set-up: unit not given here; settings: MS media, 3% sugar, pH6.0
Experimental: (§1) After adding 3% of sugar to the MS media and adjusting pH6.0, basal medium were made by adding 1 mg/L, 2 mg/L, 3 mg/L, 5 mg/L of each of the IBA, NAA and BSAA as auxin. These basal mediums were divided into a 1 L flask and a 5 L bioreactor.

[2] = test system: adventitious root of cultivated ginseng; assay: Effect of added growth regulator on adventitious root propagation (cultivated ginseng); type: cell-based, Panax ginseng C.A. Meyer; set-up: Cultivated ginseng (Increment rate of biomass): unit not given here; settings: for Cultivated ginseng (Increment rate of biomass): MS media, 3% sugar, pH6.0
Experimental: as §1

[3] = test system: root tissue of cultivated ginseng, camphor ginseng, and wild ginseng; assay: Effect of growth regulator pretreatment before culturing on saponin content and saponin ratio; type: cell-based; settings: pretreatment 1-10 hours before culturing at 1-100 mg/L
Experimental: (§2) The measurement of saponin content was followed by the standard method for the analysis of ginseng constituent of The Korean Ginseng Research Institute.
Among growth regulators, BA(benzyl adenine) 2iP, zeatin, […], TDZ, kinetin which are included in cytokinin groups was treated 1-10 hours before culturing the root tissue of cultivated ginseng, camphor ginseng, and wild ginseng at the concentration of 1-100 mg/L. Immediate after the pretreatment the saponin and the diol:triol content were compared and analyzed.

[4] = test system: adventitious root of cultivate ginseng, camphor ginseng, wild ginseng; assay: Effect of jasmonic acid and methyl jasmonic acid treatment on the saponin content of adventitious root in balloon shape bioreactor; type: cell-based
Excerpt: as §2
While culturing the adventitious root of cultivate ginseng, camphor ginseng, wild ginseng in a balloon shape bioreactor, the saponin content in the adventitious root was examined at the initial time, 10 days before harvest, and after harvest with the treatment of various concentrations of jasmonic acid and methyl jasmonic acid.
The experiment was conducted under the conditions of pH 6.0 and the MS media added with 3% sugar and 2.0 mg/L IBA.
The saponin content in the adventitious root was measured for the root treated by various concentrations of jamonic acid or methyl jamonic acid of 0, 1, 2, 5, 10 mg/L 10 days before harvest and the root washed by tap water obtained from the MS media not containing sugar or the treated root by tap water which includes jasmonic acid or methyl jasmonic acid, for one week.

O=C(O)Cc1cccc2ccccc12 [NAA, naphthalemeacetic acid]
Wild ginseng (Increment rate of biomass) ([1]; growth regulator 1 mg/L): 3.4
Wild ginseng (Increment rate of biomass) ([1]; growth regulator 2 mg/L): 6.8
Wild ginseng (Increment rate of biomass) ([1]; growth regulator 3 mg/L): 6.2
Wild ginseng (Increment rate of biomass) ([1]; growth regulator 5 mg/L): 3.8
Cultivated ginseng (Increment rate of biomass) ([2]; growth regulator 1 mg/L): 3.2
Cultivated ginseng (Increment rate of biomass) ([2]; growth regulator 2 mg/L): 7.2
Cultivated ginseng (Increment rate of biomass) ([2]; growth regulator 3 mg/L): 6.7
Cultivated ginseng (Increment rate of biomass) ([2]; growth regulator 5 mg/L): 4.2

CC(C)=CCNc1ncnc2nc[nH]c12 [2iP]
remarks: effect on the saponin components [3]: zeatin show similar

jasmonic acid
saponin content [3]: 6.50
triol/diol [3]: 2.40

O=C(O)Cc1c[se]c2ccccc12 [BSAA, benzo [b] selenienyl acetic acid]
Wild ginseng (Increment rate of biomass) ([1]; growth regulator 1 mg/L): 5.0
Wild ginseng (Increment rate of biomass) ([1]; growth regulator 2 mg/L): 12.5
Wild ginseng (Increment rate of biomass) ([1]; growth regulator 3 mg/L): 11.7
Wild ginseng (Increment rate of biomass) ([1]; growth regulator 5 mg/L): 3.9
increment of the biomass (in words) ([2]; concentration of 2-3 mg/L, text summary of Table 1 (cultivated and wild ginseng)): remarkable increment
Cultivated ginseng (Increment rate of biomass) ([2]; growth regulator 1 mg/L): 5.3
Cultivated ginseng (Increment rate of biomass) ([2]; growth regulator 2 mg/L): 13.2
Cultivated ginseng (Increment rate of biomass) ([2]; growth regulator 3 mg/L): 11.4
Cultivated ginseng (Increment rate of biomass) ([2]; growth regulator 5 mg/L): 4.8

c1coc(CNc2ncnc3[nH]cnc23)c1 [kinetin]
remarks: effect on the saponin components [3]: zeatin show similar

O=C(Nc1ccccc1)Nc1cnns1 [TDZ]
remarks: effect on the saponin components [3]: zeatin show similar

CC/C=C\CC1C(=O)CCC1CC(=O)OC (stereo not drawn) [methyl jasmonic acid]
saponin content [3]: 6.50
triol/diol [3]: 2.40

c1ccc(CNc2ncnc3nc[nH]c23)cc1 [BA, benzyl adenine]
saponin content [3]: 1.23
triol/diol [3]: 1.63

O=C(O)CCCc1c[nH]c2ccccc12 [IBA]
Wild ginseng (Increment rate of biomass) ([1]; growth regulator 1 mg/L): 4.3
Wild ginseng (Increment rate of biomass) ([1]; growth regulator 2 mg/L): 6.8
Wild ginseng (Increment rate of biomass) ([1]; growth regulator 3 mg/L): 5.7
Wild ginseng (Increment rate of biomass) ([1]; growth regulator 5 mg/L): 4.2
Cultivated ginseng (Increment rate of biomass) ([2]; growth regulator 1 mg/L): 4.5
Cultivated ginseng (Increment rate of biomass) ([2]; growth regulator 2 mg/L): 6.7
Cultivated ginseng (Increment rate of biomass) ([2]; growth regulator 3 mg/L): 6.5
Cultivated ginseng (Increment rate of biomass) ([2]; growth regulator 5 mg/L): 3.8

C/C(=C\CNc1ncnc2[nH]cnc12)CO [zeatin]
remarks: effect on the saponin components [3]: zeatin show similar

CC/C=C\C[C@H]1C(=O)CC[C@@H]1CC(=O)O [Jasmonic acid, jasmonic acid]
Ginsenoside content Rb Group ([4]; jasmonic acid 1 mg/L): 13.29 mg. 1 g drymass
Ginsenoside content Rg Group ([4]; jasmonic acid 1 mg/L): 2.83 mg. 1 g drymass
Ginsenoside content Total content ([4]; jasmonic acid 1 mg/L): 16.09 mg. 1 g drymass
Rb/Rg ([4]; jasmonic acid 1 mg/L): 4.68
Ginsenoside content Rb Group ([4]; jasmonic acid 2 mg/L): 24.19 mg. 1 g drymass
Ginsenoside content Rg Group ([4]; jasmonic acid 2 mg/L): 4.46 mg. 1 g drymass
Ginsenoside content Total content ([4]; jasmonic acid 2 mg/L): 28.69 mg. 1 g drymass
Rb/Rg ([4]; jasmonic acid 2 mg/L): 5.45
Ginsenoside content Rb Group ([4]; jasmonic acid 5 mg/L): 34.69 mg. 1 g drymass
Ginsenoside content Rg Group ([4]; jasmonic acid 5 mg/L): 4.15 mg. 1 g drymass
Ginsenoside content Total content ([4]; jasmonic acid 5 mg/L): 38.82 mg. 1 g drymass
Rb/Rg ([4]; jasmonic acid 5 mg/L): 8.43
Ginsenoside content Rb Group ([4]; jasmonic acid 10 mg/L): 54.29 mg. 1 g drymass
Ginsenoside content Rg Group ([4]; jasmonic acid 10 mg/L): 5.53 mg. 1 g drymass
Ginsenoside content Total content ([4]; jasmonic acid 10 mg/L): 59.87 mg. 1 g drymass
Rb/Rg ([4]; jasmonic acid 10 mg/L): 9.83

— patent US20020142463A1, “Method for the mass propagation of adventitious roots of ginseng, camphor ginseng and wild ginseng by tissue culture and the improvement of their saponin content” (priority 2001, published 2002)
